{"source": "patent US8952024B2", "about": "“Herbicidal pyrimidone derivatives” (E I du Pont de Nemours and Company, priority 2009, dated 2015)", "assay_type_in_all_cases": "in vivo", "conditions_in_all_cases": "Postemergence", "key": {"[1]": {"system": "canarygrass (Phalaris minor)", "assay": "Test B postemergence plant response", "procedure,_shortened": "(§1)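 Plants at the 1- to 4-leaf stage (2 to 18 cm tall), grown in pots of peat moss/vermiculite medium with wetting agent and starter nutrients, received postemergence applications of test chemicals. After 13 to 15 days in a greenhouse, injury was rated visually against untreated controls on a 0 (no effect) to 100 (complete control) scale.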"}, "[2]": {"system": "winter barley (Hordeum vulgare)", "assay": "Test B postemergence plant response", "procedure,_shortened": "as §1"}, "[3]": {"system": "chickweed (Stellaria media)", "assay": "Test B postemergence plant response", "procedure,_shortened": "as §1"}, "[4]": {"system": "morningglory (Ipomoea coccinea)", "assay": "Test B pre-/postemergence plant response", "procedure,_shortened": "(§2)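 Seeds were sown in loam soil/sand blend and treated preemergence with compound in non-phytotoxic solvent mixture containing surfactant; postemergence sprays, same formulation, went onto plants 2 to 18 cm (1- to 4-leaf stage) in peat-based planting medium. Greenhouse 13 to 15 days, then visual rating versus untreated controls, 0 (no effect) to 100 (complete control).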"}, "[5]": {"system": "goosegrass (Eleusine indica)", "assay": "Test B pre-/postemergence plant response", "procedure,_shortened": "as §2"}, "soybean (Glycine max)": {"system": "soybean (Glycine max)", "assay": "Test B pre-/postemergence plant response", "procedure,_shortened": "as §2"}, "[6]": {"system": "wheat (Triticum aestivum)", "assay": "Test B pre-/postemergence plant response", "procedure,_shortened": "as §2"}, "corn (Zea mays)": {"system": "corn (Zea mays)", "assay": "Test B pre-/postemergence plant response", "procedure,_shortened": "as §2"}, "[7]": {"system": "blackgrass (Alopecurus myosuroides)", "assay": "Test B pre-/postemergence plant response", "procedure,_shortened": "as §2"}, "[8]": {"system": "downy bromegrass (Bromus tectorum)", "assay": "Test B pre-/postemergence plant response", "procedure,_shortened": "as §2"}, "[9]": {"system": "giant foxtail (Setaria faberii)", "assay": "Test B pre-/postemergence plant response", "procedure,_shortened": "as §2"}, "[10]": {"system": "ragweed (common ragweed, Ambrosia elatior)", "assay": "Test B pre-/postemergence plant response", "procedure,_shortened": "as §2"}, "[11]": {"system": "Italian ryegrass (Lolium multiflorum)", "assay": "Test B pre-/postemergence plant response", "procedure,_shortened": "as §2"}, "[12]": {"system": "green foxtail (Setaria viridis)", "assay": "Test B pre-/postemergence plant response", "procedure,_shortened": "as §2"}, "[13]": {"system": "johnsongrass (Sorghum halepense)", "assay": "Test B pre-/postemergence plant response", "procedure,_shortened": "as §2"}, "[14]": {"system": "velvetleaf (Abutilon theophrasti)", "assay": "Test B pre-/postemergence plant response", "procedure,_shortened": "as §2"}, "[15]": {"system": "pigweed (Amaranthus retroflexus)", "assay": "Test B pre-/postemergence plant response", "procedure,_shortened": "as §2"}, "[16]": {"system": "bermudagrass (Cynodon dactylon)", "assay": "Test B pre-/postemergence plant response", "procedure,_shortened": "as §2"}, "[17]": {"conditions": "31 g ai/ha, 0 to 100 scale (0 no effect, 100 complete control)"}, "[18]": {"conditions": "125 g ai/ha, scale 0 to 100 (0 no effect, 100 complete control)"}, "[19]": {"conditions": "250 g ai/ha, scale 0 to 100 (0 no effect, 100 complete control), 13 to 15 days"}, "[20]": {"conditions": "62 g ai/ha, scale 0 to 100 (0 no effect, 100 complete control)"}}}
{"smiles": "CCCn1c(-c2ccccc2)ncc(C(=O)C2=C(O)C3CCC(C3)C2=O)c1=O", "note": "(stereo not drawn) [Compound 226]", "values": [{"measurement": "Plant response rating, Canarygrass", "setting": "[1]; [17]", "value": 5}, {"measurement": "Plant response rating, Canarygrass", "setting": "[1]; [18]", "value": 50}, {"measurement": "Plant response rating, Canarygrass", "setting": "[1]; [19]", "value": 60}, {"measurement": "Plant response rating, Canarygrass", "setting": "[1]; [20]", "value": 30}, {"measurement": "Plant response rating, Barley", "setting": "[2]; [17]", "value": 10}, {"measurement": "Plant response rating, Barley", "setting": "[2]; [18]", "value": 30}, {"measurement": "Plant response rating, Barley", "setting": "[2]; [19]", "value": 60}, {"measurement": "Plant response rating, Barley", "setting": "[2]; [20]", "value": 30}, {"measurement": "Plant response rating, Chickweed", "setting": "[3]; [17]", "value": 75}, {"measurement": "Plant response rating, Chickweed", "setting": "[3]; [18]", "value": 85}, {"measurement": "Plant response rating, Chickweed", "setting": "[3]; [19]", "value": 95}, {"measurement": "Plant response rating, Chickweed", "setting": "[3]; [20]", "value": 75}, {"measurement": "Plant response rating, Morningglory", "setting": "[4]; [17]", "value": 98}, {"measurement": "Plant response rating, Morningglory", "setting": "[4]; [18]", "value": 100}, {"measurement": "Plant response rating, Morningglory", "setting": "[4]; [19]", "value": 100}, {"measurement": "Plant response rating, Morningglory", "setting": "[4]; [20]", "value": 98}, {"measurement": "Plant response rating, Goosegrass", "setting": "[5]; [17]", "value": 80}, {"measurement": "Plant response rating, Goosegrass", "setting": "[5]; [18]", "value": 85}, {"measurement": "Plant response rating, Goosegrass", "setting": "[5]; [19]", "value": 85}, {"measurement": "Plant response rating, Goosegrass", "setting": "[5]; [20]", "value": 80}, {"measurement": "Plant response rating, Soybean", "setting": "soybean (Glycine max); [17]", "value": 95}, {"measurement": "Plant response rating, Soybean", "setting": "soybean (Glycine max); [19]", "value": 100}, {"measurement": "Plant response rating, Soybean", "setting": "soybean (Glycine max); [20]", "value": 98}, {"measurement": "Plant response rating, Wheat", "setting": "[6]; [17]", "value": 10}, {"measurement": "Plant response rating, Wheat", "setting": "[6]; [19]", "value": 30}, {"measurement": "Plant response rating, Wheat", "setting": "[6]; [20]", "value": 15}, {"measurement": "Plant response rating, Corn", "setting": "corn (Zea mays); [17]", "value": 75}, {"measurement": "Plant response rating, Corn", "setting": "corn (Zea mays); [18]", "value": 98}, {"measurement": "Plant response rating, Corn", "setting": "corn (Zea mays); [19]", "value": 98}, {"measurement": "Plant response rating, Corn", "setting": "corn (Zea mays); [20]", "value": 80}, {"measurement": "Plant response rating, Blackgrass", "setting": "[7]; [17]", "value": 5}, {"measurement": "Plant response rating, Blackgrass", "setting": "[7]; [18]", "value": 40}, {"measurement": "Plant response rating, Blackgrass", "setting": "[7]; [19]", "value": 60}, {"measurement": "Plant response rating, Blackgrass", "setting": "[7]; [20]", "value": 30}, {"measurement": "Plant response rating, Bromegrass, Downy", "setting": "[8]; [17]", "value": 0}, {"measurement": "Plant response rating, Bromegrass, Downy", "setting": "[8]; [18]", "value": 5}, {"measurement": "Plant response rating, Bromegrass, Downy", "setting": "[8]; [19]", "value": 30}, {"measurement": "Plant response rating, Bromegrass, Downy", "setting": "[8]; [20]", "value": 0}, {"measurement": "Plant response rating, Foxtail, Giant", "setting": "[9]; [17]", "value": 85}, {"measurement": "Plant response rating, Foxtail, Giant", "setting": "[9]; [18]", "value": 95}, {"measurement": "Plant response rating, Foxtail, Giant", "setting": "[9]; [19]", "value": 95}, {"measurement": "Plant response rating, Foxtail, Giant", "setting": "[9]; [20]", "value": 90}, {"measurement": "Plant response rating, Ragweed", "setting": "[10]; [17]", "value": 80}, {"measurement": "Plant response rating, Ragweed", "setting": "[10]; [19]", "value": 90}, {"measurement": "Plant response rating, Ragweed", "setting": "[10]; [20]", "value": 85}, {"measurement": "Plant response rating, Ryegrass, Italian", "setting": "[11]; [17]", "value": 0}, {"measurement": "Plant response rating, Ryegrass, Italian", "setting": "[11]; [19]", "value": 20}, {"measurement": "Plant response rating, Ryegrass, Italian", "setting": "[11]; [20]", "value": 0}, {"measurement": "Plant response rating, Foxtail, Green", "setting": "[12]; [17]", "value": 70}, {"measurement": "Plant response rating, Foxtail, Green", "setting": "[12]; [18]", "value": 90}, {"measurement": "Plant response rating, Foxtail, Green", "setting": "[12]; [19]", "value": 90}, {"measurement": "Plant response rating, Foxtail, Green", "setting": "[12]; [20]", "value": 80}, {"measurement": "Plant response rating, Johnsongrass", "setting": "[13]; [17]", "value": 85}, {"measurement": "Plant response rating, Johnsongrass", "setting": "[13]; [18]", "value": 100}, {"measurement": "Plant response rating, Johnsongrass", "setting": "[13]; [19]", "value": 100}, {"measurement": "Plant response rating, Johnsongrass", "setting": "[13]; [20]", "value": 85}, {"measurement": "Plant response rating, Velvetleaf", "setting": "[14]; [17]", "value": 85}, {"measurement": "Plant response rating, Velvetleaf", "setting": "[14]; [19]", "value": 98}, {"measurement": "Plant response rating, Velvetleaf", "setting": "[14]; [20]", "value": 85}, {"measurement": "Plant response rating, Pigweed", "setting": "[15]; [17]", "value": 75}, {"measurement": "Plant response rating, Pigweed", "setting": "[15]; [19]", "value": 98}, {"measurement": "Plant response rating, Pigweed", "setting": "[15]; [20]", "value": 85}, {"measurement": "Plant response rating, Bermudagrass", "setting": "[16]; [17]", "value": 80}, {"measurement": "Plant response rating, Bermudagrass", "setting": "[16]; [18]", "value": 85}, {"measurement": "Plant response rating, Bermudagrass", "setting": "[16]; [19]", "value": 98}, {"measurement": "Plant response rating, Bermudagrass", "setting": "[16]; [20]", "value": 80}]}
